Assays:
[1] = system: G-quadruplexes in the HIV-1 LTR (G4 LTR FRET oligonucleotide); assay: FRET melting assay; format: binding; settings: 2 μM compound, 0.2 μM oligonucleotide
[2] = system: HIV-1 LTR G-quadruplex template (G4 LTR Stop); assay: Taq polymerase stop assay; format: biochemical; settings: for Fold change, all regions (A, B and C) together: normalized against control
Experimental: To address specifically the positions in the HIV-1 promoter region that are affected by the binding of G4-stabilizing agents, we performed a Taq polymerase stop assay. The wild-type LTR oligonucleotide was extended at the […] to include a primer-annealing region and used as a template for a single-cycle Taq polymerase reaction. The elongation of the radioactively labelled primer was performed at 45 °C in the presence or absence of the tested compounds and controls.
A Taq polymerase stop assay was carried out as described in a previous study. Briefly, the primer (G4 LTR primer, Supplementary Table S1) was 5′-end labelled with [γ-^32P]ATP using T4 polynucleotide kinase at 37 °C for 30 min. The T4 polynucleotide kinase was then inactivated by incubation at 65 °C for 5 min. The radioactively labelled primer was column-purified and stored at − 20 °C for further use. The labelled primer (1.7 pmol) was annealed to the template (2.1 pmol) in the LiCaco buffer and extended with the Go Taq DNA polymerase (2U/reaction, Promega) at 45 °C for 45 min. Samples were incubated with G-quadruplex-ligands at 45 °C for 45 min before DNA polymerase addition. The reactions were stopped by a denaturing solution (80% formamide, 10% glycerol, 0.025% xylen cyanol, 0.025% bromphenol blue and 10 mM EDTA pH 8); extension products were separated on 15% denaturing gel and visualized by phosphorimaging. The pixel intensity of bands was calculated using 1D gel analysis in ImageQuant TL software version 8.1 (GE HealthCare) after automatic background subtraction by Rolling Ball method.

[3] = 2.5 µM, pixel intensity normalized against negative control

NCCOc1cc(C(=O)Nc2cc(OCCN)c3ccccc3n2)nc(C(=O)Nc2cc(OCCN)c3ccccc3n2)c1 [PDS, pyridostatin, reference compound]
Tm ([1]; 100 mM KCl, mean and standard error, three experiments): 93 ± 13 °C
ΔTm ([1]; average Tm minus average Tm of PBS): 42 °C
Fold change, all regions (A, B and C) together ([2]; 1 μM): 2.0
Fold change, all regions (A, B and C) together ([2]; 2.5 μM): 2.4
Fold change: A (G-patch 6′) [2, 3]: 2.6
Fold change: B (G-patch 6) [2, 3]: 2.7
Fold change: C (G-patch 5) [2, 3]: 1.6
